Laboratory results taken from ChEMBL document CHEMBL1201862, “PubChem BioAssay data set” (2004).
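Protocol summary: plate cells (96-well), add compound at 5 concentrations, incubate 48 h, interpolate endpoints linearly. Abbreviation: GI50, concentration required for 50% inhibition of growth.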 Calls of active or inactive are those of the source. Cut-off read from the data, not from the text of the source: active = GI50 up to about 1.1 µM and inactive = higher.

Assays:
Experiment in all cases: inhibition of tumour cell growth, NCI panel, 48 h
[1] = test system: 786-0
[2] = test system: A498
[3] = test system: A549
[4] = test system: ACHN
[5] = test system: BT-549
[6] = test system: CAKI-1
[7] = test system: CCRF-CEM
[8] = test system: COLO 205
[9] = test system: DU-145
[10] = test system: EKVX
[11] = test system: HCC 2998
[12] = test system: HCT-116
[13] = test system: HCT-15
[14] = test system: HL-60
[15] = test system: HOP-62
[16] = test system: HOP-92
[17] = test system: HT-29
[18] = test system: Hs-578T
[19] = test system: IGROV-1
[20] = test system: K562
[21] = test system: KM12
[22] = test system: LOX IMVI
[23] = test system: M14
[24] = test system: MCF7
[25] = test system: MDA-MB-231
[26] = test system: MDA-MB-435
[27] = test system: MDA-N
[28] = test system: MOLT-4
[29] = test system: Malme-3M
[30] = test system: NCI-H226
[31] = test system: NCI-H23
[32] = test system: NCI-H460
[33] = test system: NCI-H522
[34] = test system: NCI/ADR-RES
[35] = test system: OVCAR-3
[36] = test system: OVCAR-4
[37] = test system: OVCAR-5
[38] = test system: OVCAR-8
[39] = test system: PC-3
[40] = test system: RPMI-8226
[41] = test system: RXF 393
[42] = test system: SF-268
[43] = test system: SF-295
[44] = test system: SK-MEL-28
[45] = test system: SK-MEL-2
[46] = test system: SK-MEL-5
[47] = test system: SK-OV-3
[48] = test system: SN12C
[49] = test system: SNB-19
[50] = test system: SNB-75
[51] = test system: SR
[52] = test system: SW-620
[53] = test system: T47D
[54] = test system: U-251
[55] = test system: UACC-257
[56] = test system: UACC-62
[57] = test system: UO-31
[58] = test system: SF-539
[59] = test system: TK-10

## COc1ccc2cc(NC(=O)N/N=C\c3ccc([N+](=O)[O-])cc3)ccc2c1
[1]
  GI50: 30.5 µM (inactive)
[2]
  GI50: 53 µM (inactive)
[3]
  GI50: 34.1 µM (inactive)
[4]
  GI50: 37.6 µM (inactive)
[5]
  GI50: 27.2 µM (inactive)
[6]
  GI50: 43.6 µM (inactive)
[7]
  GI50: > 100 µM (inactive)
[8]
  GI50: > 100 µM (inactive)
[9]
  GI50: > 100 µM (inactive)
[10]
  GI50: 81.8 µM (inactive)
[11]
  GI50: 12.9 µM (inactive)
[12]
  GI50: 53.3 µM (inactive)
[13]
  GI50: 48 µM
[14]
  GI50: 45 µM (inactive)
[15]
  GI50: 19.5 µM (inactive)
[16]
  GI50: 39.5 µM (inactive)
[17]
  GI50: 33.5 µM (inactive)
[18]
  GI50: 42.5 µM (inactive)
[19]
  GI50: 23.7 µM (inactive)
[20]
  GI50: 80.4 µM (inactive)
[21]
  GI50: 72.3 µM (inactive)
[22]
  GI50: > 100 µM (inactive)
[23]
  GI50: 30.8 µM (inactive)
[24]
  GI50: 29.9 µM (inactive)
[25]
  GI50: 37.4 µM (inactive)
[26]
  GI50: 69 µM (inactive)
[27]
  GI50: 79.3 µM (inactive)
[28]
  GI50: > 100 µM (inactive)
[29]
  GI50: 23.4 µM (inactive)
[30]
  GI50: 18.7 µM (inactive)
[31]
  GI50: 22.9 µM (inactive)
[32]
  GI50: 29.4 µM (inactive)
[33]
  GI50: 16 µM (inactive)
[34]
  GI50: 23.8 µM (inactive)
[35]
  GI50: 40.5 µM (inactive)
[36]
  GI50: 1.91 µM (inactive)
[37]
  GI50: 45.9 µM (inactive)
[38]
  GI50: 21.8 µM (inactive)
[39]
  GI50: 27.6 µM (inactive)
[40]
  GI50: 35.7 µM (inactive)
[41]
  GI50: 20.4 µM (inactive)
[42]
  GI50: 20.1 µM (inactive)
[43]
  GI50: 25.9 µM (inactive)
[44]
  GI50: > 100 µM (inactive)
[45]
  GI50: 60.3 µM (inactive)
[46]
  GI50: 73.3 µM (inactive)
[47]
  GI50: 31 µM (inactive)
[48]
  GI50: 86.3 µM (inactive)
[49]
  GI50: 20.4 µM (inactive)
[50]
  GI50: 21.3 µM (inactive)
[51]
  GI50: > 100 µM (inactive)
[52]
  GI50: > 100 µM (inactive)
[53]
  GI50: 49.1 µM (inactive)
[54]
  GI50: 29.9 µM (inactive)
[55]
  GI50: 42.2 µM (inactive)
[56]
  GI50: 20.9 µM (inactive)
[57]
  GI50: 17.1 µM (inactive)

## CCOC(=O)NC(C(F)(F)F)(C(F)(F)F)P(=O)(OCC(C)C)OCC(C)C
[2]
  GI50: 41.9 µM (inactive)
[3]
  GI50: 22.3 µM (inactive)
[4]
  GI50: 8.34 µM (inactive)
[5]
  GI50: 13.2 µM (inactive)
[6]
  GI50: 27.9 µM (inactive)
[7]
  GI50: 2.67 µM (inactive)
[8]
  GI50: 10.2 µM (inactive)
[9]
  GI50: 35 µM (inactive)
[10]
  GI50: 21.6 µM (inactive)
[11]
  GI50: 34.6 µM (inactive)
[12]
  GI50: 2.55 µM (inactive)
[13]
  GI50: 4.18 µM
[14]
  GI50: 2.97 µM (inactive)
[15]
  GI50: 30 µM (inactive)
[16]
  GI50: 9.38 µM (inactive)
[17]
  GI50: 11.5 µM (inactive)
[18]
  GI50: 14.9 µM (inactive)
[19]
  GI50: 10.2 µM (inactive)
[20]
  GI50: 7.28 µM (inactive)
[21]
  GI50: 14 µM (inactive)
[22]
  GI50: 4.49 µM (inactive)
[23]
  GI50: 11.6 µM (inactive)
[24]
  GI50: 4.7 µM (inactive)
[25]
  GI50: 15.1 µM (inactive)
[26]
  GI50: 15.5 µM (inactive)
[27]
  GI50: 6.04 µM (inactive)
[29]
  GI50: 16.2 µM (inactive)
[30]
  GI50: 13.9 µM (inactive)
[32]
  GI50: 19.2 µM (inactive)
[33]
  GI50: 2.49 µM (inactive)
[34]
  GI50: 5.05 µM (inactive)
[35]
  GI50: 19.1 µM (inactive)
[37]
  GI50: 18.6 µM (inactive)
[38]
  GI50: 5.41 µM (inactive)
[39]
  GI50: 6.37 µM (inactive)
[40]
  GI50: 14.4 µM (inactive)
[41]
  GI50: 11.3 µM (inactive)
[42]
  GI50: 11.1 µM (inactive)
[43]
  GI50: 24.8 µM (inactive)
[58]
  GI50: 15.7 µM (inactive)
[44]
  GI50: 18 µM (inactive)
[45]
  GI50: 14.9 µM (inactive)
[46]
  GI50: 12.1 µM (inactive)
[47]
  GI50: 13.7 µM (inactive)
[48]
  GI50: 16.2 µM (inactive)
[49]
  GI50: 28.8 µM (inactive)
[50]
  GI50: 23.6 µM (inactive)
[51]
  GI50: 9.77 µM (inactive)
[52]
  GI50: 3.82 µM (inactive)
[53]
  GI50: 23.8 µM (inactive)
[59]
  GI50: 11.9 µM (inactive)
[54]
  GI50: 5.98 µM (inactive)
[56]
  GI50: 11.7 µM (inactive)
[57]
  GI50: 7.35 µM (inactive)

## Cc1nc(N)c(N2CCN(CN)CC2)c(O)n1
[1]
  GI50: > 100 µM (inactive)
[2]
  GI50: > 100 µM (inactive)
[3]
  GI50: > 100 µM (inactive)
[4]
  GI50: > 100 µM (inactive)
[5]
  GI50: > 100 µM (inactive)
[7]
  GI50: > 100 µM (inactive)
[8]
  GI50: > 100 µM (inactive)
[9]
  GI50: > 100 µM (inactive)
[10]
  GI50: > 100 µM (inactive)
[11]
  GI50: > 100 µM (inactive)
[12]
  GI50: > 100 µM (inactive)
[13]
  GI50: > 100 µM
[14]
  GI50: > 100 µM (inactive)
[15]
  GI50: > 100 µM (inactive)
[17]
  GI50: > 100 µM (inactive)
[18]
  GI50: > 100 µM (inactive)
[20]
  GI50: > 100 µM (inactive)
[21]
  GI50: > 100 µM (inactive)
[22]
  GI50: > 100 µM (inactive)
[23]
  GI50: > 100 µM (inactive)
[24]
  GI50: > 100 µM (inactive)
[25]
  GI50: > 100 µM (inactive)
[26]
  GI50: > 100 µM (inactive)
[27]
  GI50: > 100 µM (inactive)
[28]
  GI50: > 100 µM (inactive)
[29]
  GI50: > 100 µM (inactive)
[30]
  GI50: > 100 µM (inactive)
[31]
  GI50: > 100 µM (inactive)
[32]
  GI50: > 100 µM (inactive)
[33]
  GI50: > 100 µM (inactive)
[34]
  GI50: > 100 µM (inactive)
[35]
  GI50: > 100 µM (inactive)
[36]
  GI50: > 100 µM (inactive)
[37]
  GI50: > 100 µM (inactive)
[38]
  GI50: > 100 µM (inactive)
[39]
  GI50: > 100 µM (inactive)
[40]
  GI50: > 100 µM (inactive)
[42]
  GI50: > 100 µM (inactive)
[43]
  GI50: > 100 µM (inactive)
[58]
  GI50: > 100 µM (inactive)
[44]
  GI50: > 100 µM (inactive)
[45]
  GI50: > 100 µM (inactive)
[48]
  GI50: > 100 µM (inactive)
[49]
  GI50: > 100 µM (inactive)
[50]
  GI50: > 100 µM (inactive)
[51]
  GI50: > 100 µM (inactive)
[52]
  GI50: > 100 µM (inactive)
[53]
  GI50: > 100 µM (inactive)
[59]
  GI50: > 100 µM (inactive)
[54]
  GI50: > 100 µM (inactive)
[55]
  GI50: > 100 µM (inactive)
[57]
  GI50: > 100 µM (inactive)
